One compound from patent US20030162834A1, “Natural physiologically active material effective on fish diseases and fish food containing the material” (priority 1998, published 2003) can be followed below.

The subject of data set [1] is Cryptocaryon irritans. The data set can be described thus: Trial 4: oral octanoic acid, Cryptocaryon irritans challenge trial on red sea bream. The class given is in vivo. Particulars: 5 g octanoic acid per 1 kg pellets. As to the method:
Fish tested: Red sea bream weighing approximately 9.8 g in average.
(§1) Trial groups: Two groups, i.e., an octanoic-acid added group in which fish were fed diets added with octanoic acid, and a control group in which fish were fed diets not added with octanoic acid. The feeding rate was 3% of fish weight/day for each group.
Trial diets: The diets added with octanoic acid were prepared by spraying 5 g of octanoic acid to 1 kg of commercially available pellets for red sea bream. The control group fish were fed the commercially available pellets for red sea bream.
Challenge trial: Each 30 pieces of fish from among a shoal of fish, in which no diseases such as Cryptocaryon irritans infection were found, were put in a 100-liter water tank, and were fed the respective trial diets. After 5 days, approximately 2000 individuals of ([…] theronts) of Cryptocaryon irritans were put in each water tank to infect the fish while water flow was stopped for 1 hour. Then, bleeding was continued for 15 days. During the trial period, the water temperature was in the range of 22.5-23.2 degrees centigrade and the water was exchanged at 20 cycles/day.
Evaluation was made by sampling 5 pieces of fish from each group after 3 days from the start of the challenge, comparing the number of parasites attaching to the gill and the body surface of each infected fish, and comparing mortality of the fish during the trial period between the respective groups.

A further data set has as its system Heterobothrium okamotoi. The data set can be described thus: Trial 3: oral octanoic acid, Heterobothrium okamotoi challenge trial on tiger puffer. Particulars: 2.5 g octanoic acid per 1 kg pellets. The class given is in vivo. As to the method:
Fish tested: Tiger puffer weighing approximately 133.6 g in average.
Trial groups: Two groups, i.e., an octanoic-acid added group in which fish were fed diets added with octanoic acid, and a control group in which fish were fed diets not added with octanoic acid. The feeding rate was 1% of fish weight/day for each group.
Trial diets: The diets added with octanoic acid were prepared by spraying 2.5 g of octanoic acid to 1 kg of commercially available pellets for tiger puffer. The control group fish were fed the commercially available pellets for tiger puffer.
Challenge trial: Each 12 pieces of fish (normal fish) from among a shoal of fish, in which no diseases such as Heterobothrium okamotoi infection were found, were put in a 100-liter water tank, and were fed the respective trial diets. After 7 days, 6 pieces of fish (infected fish), which had been infected in advance with approximately 100 individuals of Heterobothrium okamotoi, were added to each trial group. Then, bleeding was continued for 73 days while feeding the trial diets. In this trial, the parasites Heterobothrium okamotoi in the infected fish were in the stage of adult. After 30 days from adding the infected fish, 4 pieces of normal fish were sampled from each group, and the number of parasites attaching to the gill was counted. During the trial period, the water temperature was in the range of 16.5-20.9 degrees centigrade and the water was exchanged at 20 cycles/day.
Evaluation was made by comparing mortality of the fish in respective groups during the trial period, and by counting the number of parasites attaching to the gill of the infected fish in each group for investigation of the remedy efficacy and the infection preventable efficacy.

The next data set has as its system Heteraxine heterocerca. The data set can be described thus: Trial 5: oral octanoic acid, field trial on amberjack. Format: in vivo. The following applies: 8 g octanoic acid per 1 kg pellets, 9 days. As to the method: (§2) Fish tested: Amberjack weighing approximately 117 g in average.
as §1
(§3) Trial diets: The diets added with octanoic acid were prepared by spraying 8 g of octanoic acid to 1 kg of commercially available pellets for amberjack. The control group fish were fed the commercially available pellets for amberjack.
(§4) Trial: The trial was conducted using off-shore net pens of 10×10×9 m placed in the field sea. Each 15000 pieces of fish for each group were treated with a parasiticide containing commercially available hydrogen peroxide as a main ingredient, and then put in each net pen. At this time, it was confirmed that Heteraxine heterocerca parasitizing to the gill and Benedenia seriolae parasitizing on the body surface were eliminated, by investigating 20 pieces of fish for each group. It was also simultaneously confirmed that blood flukes (Pradeontacylix) were present in the fish, by investigating the presence of eggs in the gill filaments. Then, bleeding was continued for 9 days while feeding the trial diets. The water temperature during the trial period was in the range of 18.5-20.0 degrees centigrade.
(§5) Evaluation was made by sampling 20 pieces of fish from each group after 9 days from the start of the bleeding, and counting and comparing the number of Heteraxine heterocerca in the gill of each sampled fish, the number of Benedenia seriolae on the body surface, and the number of eggs of blood flukes (Paradeontacylix) in the gill filaments.

In the next data set the test system is Benedenia seriolae. The description is as above. The following applies: 8 g octanoic acid per 1 kg pellets, 9 days. Format: in vivo. As to the method: as §2, §1, §3, §4, §5
In data set [2] the test system is blood flukes (Paradeontacylix). The description is as above. The class given is in vivo. Particulars: 8 g octanoic acid per 1 kg pellets, 9 days. As to the method:
as §2, §1, §3, §4, §5

The subject of data set [3] is parasites (Heterobothrium okamotoi, Cryptocaryon irritans). Nature of the data set: Trial 1: overall statements on efficacy of fatty acids against parasites. Format: cell-based. Particulars: Trial 1 summary; C12 at a low concentration, not the same condition. As to the method:
Fatty acids having carbon number C2, C4 and C6-C10 were each dissolved in seawater at 1 mM concentration, and oncomiracidia of Heterobothrium okamotoi and larvae attaching to the gill were immersed in the seawater solutions. After 2 hours from the start of immersion, the efficacy of the fatty acids was investigated by counting the number of dead oncomiracidia and the number of larvae dropping down from the gill. More than 30 individuals of parasites were transferred to each group.
(§6) For Cryptocaryon irritans, fatty acids having carbon number C2, C4 and C6-C10 were each dissolved in seawater at 0.5 mM concentration, and theronts of Cryptocaryon irritans were immersed in the seawater solutions. After 1 hour from the start of immersion, the efficacy of the fatty acids was investigated by counting the number of dead theronts. More than 200 individuals of parasites were transferred to each group.
(§7) For any of the groups, the trial was made under condition of 20 degrees centigrade.

For data set [4], the system named is Cryptocaryon irritans. Nature of the data set: Trial 1: in vitro immersion of theronts in fatty acid seawater solutions. The class given is cell-based. Particulars: 0.5 mM in seawater, 20 degrees centigrade; listed as C8. As to the method: as §6, §7
Data set [5] can be described thus: Trial 9: tolerance of tiger puffer to immersion in seawater containing octanoic acid. The class given is in vivo. From the text: Each group, i.e., 130 g of tiger puffer, was immersed in 2-liter seawater containing octanoic acid at 100 ppm, 200 ppm and 400 ppm, followed by observation.

Turning to `CCCCCCCC(=O)O` [octanoic acid], the “parasites on gill and body surface after 3 days from the challenge” value with Cryptocaryon irritans [1] is “no parasites were found”. Besides, the “parasites at the end of the trial” value with Cryptocaryon irritans [1] (15 days) is reported as “no parasites were found”. Further, the “fish mortality during the trial” value in the data set on Cryptocaryon irritans [1] (15 days, control all dead at the 8-th day) is reported as “no fish died”. Moreover, in the data set on Heterobothrium okamotoi, the “number of parasites attaching to the normal fish after 30 days, versus control” value is given as “apparently reduced”. Further, in the data set on Heterobothrium okamotoi (73 days), the “number of parasites (adults and larvae) attaching to infected fish survived at the end of the trial, versus control” value is “apparently reduced”; the “numbers of parasites in normal fish survived at the end and fish died during the trial” value is “apparently reduced”. Besides, the “adults attaching to each survived infected fish at the end of the trial” value in the data set on Heterobothrium okamotoi (73 days, approximately 100 at the start) is on record as “approximately 27 individuals”. In addition, the “survival rate of the infected fish at the end of the trial” value in the data set on Heterobothrium okamotoi (73 days, control 16.7%) came out at 66.7%. Also, in the data set with Heterobothrium okamotoi (cohabitation with infected fish 73 days, control 0%), the “survival rate of the normal fish” value was found to be 75%. The “number of Heteraxine heterocerca in the gill, versus control” value in the data set on Heteraxine heterocerca is recorded as “apparently fewer”. Moreover, the “number of Benedenia seriolae on the body surface, versus control” value in the data set on Benedenia seriolae is given as “no appreciable difference”. For the same compound, the “eggs of blood flukes in the gill filaments” value in data set [2] is “no eggs of blood flukes were observed”. The efficacy against parasites entry in data set [3] is “most effective”. The “emergence of dead theronts” value in the data set on Cryptocaryon irritans [4] is “emerged earliest”. In addition, the “condition when returned to seawater” value in data set [5] (after immersion at 100 ppm) is given as “no abnormality”. In addition, the “time to restore to a normal condition after return to seawater” value in data set [5] (after immersion at 200 ppm) is given as “approximately 30 minutes”. Besides, the “time to restore to a normal condition after return to seawater” value in data set [5] (after immersion at 400 ppm, almost dying condition) is reported as “approximately 60 minutes”. In addition, the “observation of fish after 60 minutes” value in data set [5] (immersion, 100 ppm octanoic acid in seawater) is listed as “a swimming activity of the fish was slightly lowered, but no abnormality was found in the fish”. Besides, in data set [5] (immersion, 200 ppm), the “time at which fish began to lie down” value worked out at 60 min and the “time until swimming activity was apparently lowered” value came out at 30 min. For the same compound, in data set [5] (immersion, 400 ppm), the “time at which fish became almost dying” value was determined as 9 min and the “time at which fish began to lie down” value was 3 min. The “observation of fish returned to seawater” value in data set [5] (observed for 7 days after immersion) is listed as “no abnormality was found”.
